Data taken from patent US20230039836A1, “AROMATIC SULPHONAMIDES DERIVATIVES THAT INHIBITS PDI A3, THEIR SYNTHESIS AND USE” (Uniwersytet Jagiellonski, priority 2020, published 2023).

Tested on: HT-29
Assay: Long-term colony formation assay
Type: cell-based, human
Conditions: treated at IC50 dose, colonies after 2 weeks; FIGS. 1A and 1B
Protocol: To confirm, anticancer effects, selected compounds of invention, PDIA1 inhibitors were tested in long-term colony formation assay. For long-term colony formation assay the human colorectal carcinoma cell lines Caco-2 and HT-29 were maintained as follows: HT-29 in RPMI-1640 with HEPES + OPTI-MEM (1:1) and Caco-2 in Eagle’s medium (all from IIET, Wroclaw, Poland) both culture media were supplemented with 2 mM L-glutamine, 1 mM sodium pyruvate (both from Sigma-Aldrich Chemie GmbH, Steinheim, Germany), fetal bovine serum: 5% HT-29 (GE Healthcare), 20% Caco-2 (Sigma-Aldrich Chemie GmbH, Steinheim, Germany), 100 U/ml penicillin, 100 µg/ml streptomycin (both from Polfa Tarchomin S.A., Warsaw, Poland). All cell lines were grown at 37° C. in a humidified atmosphere with 5% CO2. […] The viable cells were counted using a hemocytometer (trypan blue exclusion method) and seeded in triplicates at a density of 5 × 10^2 cells/3 ml and 2.5 × 10^2 cells/3 ml (9.5 cm^2) for Caco-2 and HT-29 respectively. […] After 2 weeks, the colonies were fixed and stained with 1% crystal violet/ethanol (Sigma-Aldrich), documented with Sony Alpha 300 camera (Sony), and counted manually using ImageJ 1.47 software (National Institutes of Health, Bethesda, MD, USA). Surviving fraction (SF) was calculated. […]

COC(=O)C1CN1S(=O)(=O)c1ccccc1 (stereo not shown) [Compound C-3251, Methyl 1-(benzenesulfonyl)aziridine-2-carboxylate]
Inhibition of long-term colonies formation, HT-29: much potent towards HT-29 than CaCo-2 cell line
